From publication PMC11233931, “Remodeling tumor‐associated macrophage for anti‐cancer effects by rational design of irreversible inhibition of mitogen‐activated protein kinase‐activated protein kinase 2” (MedComm, 2024)

Columns and labels:
Assay in all cases: Eurofins kinase selectivity profile against 380 other human recombinant kinases (Table S2)
Assay type in all cases: biochemical
[1] = molecular target: T1, 380 human recombinant protein kinases (Homo sapiens, UniProt Q9UBE8); details: NLK(h), read-out: Inhibition rate
T1 construct: purchased Eurofins (Celle Lévescault)
T1 sequence (Q9UBE8 1-527): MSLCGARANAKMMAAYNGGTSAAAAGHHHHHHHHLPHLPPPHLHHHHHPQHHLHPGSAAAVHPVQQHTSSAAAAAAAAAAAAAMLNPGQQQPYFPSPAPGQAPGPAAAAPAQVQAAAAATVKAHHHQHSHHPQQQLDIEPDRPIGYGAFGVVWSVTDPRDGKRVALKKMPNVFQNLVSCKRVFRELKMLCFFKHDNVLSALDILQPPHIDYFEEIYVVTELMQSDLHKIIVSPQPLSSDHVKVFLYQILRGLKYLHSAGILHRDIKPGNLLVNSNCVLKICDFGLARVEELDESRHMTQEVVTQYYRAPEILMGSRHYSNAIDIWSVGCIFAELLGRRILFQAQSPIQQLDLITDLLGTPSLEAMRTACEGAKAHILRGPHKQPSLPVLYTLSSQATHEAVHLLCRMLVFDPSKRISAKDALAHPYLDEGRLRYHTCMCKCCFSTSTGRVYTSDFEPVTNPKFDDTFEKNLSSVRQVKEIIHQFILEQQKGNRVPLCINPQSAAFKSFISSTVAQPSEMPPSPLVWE
In short: (§1)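 Values come from a contract kinase-profiling service that tested the compound at multiple concentrations across 380 recombinant human kinases, as an off-target check against the MK2 activity.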

[2] = molecular target: T2, 380 human recombinant protein kinases (Homo sapiens, UniProt P25098); details: GRK2(h), read-out: Inhibition rate
T2 construct: purchased Eurofins (Celle Lévescault)
T2 sequence (P25098 1-689): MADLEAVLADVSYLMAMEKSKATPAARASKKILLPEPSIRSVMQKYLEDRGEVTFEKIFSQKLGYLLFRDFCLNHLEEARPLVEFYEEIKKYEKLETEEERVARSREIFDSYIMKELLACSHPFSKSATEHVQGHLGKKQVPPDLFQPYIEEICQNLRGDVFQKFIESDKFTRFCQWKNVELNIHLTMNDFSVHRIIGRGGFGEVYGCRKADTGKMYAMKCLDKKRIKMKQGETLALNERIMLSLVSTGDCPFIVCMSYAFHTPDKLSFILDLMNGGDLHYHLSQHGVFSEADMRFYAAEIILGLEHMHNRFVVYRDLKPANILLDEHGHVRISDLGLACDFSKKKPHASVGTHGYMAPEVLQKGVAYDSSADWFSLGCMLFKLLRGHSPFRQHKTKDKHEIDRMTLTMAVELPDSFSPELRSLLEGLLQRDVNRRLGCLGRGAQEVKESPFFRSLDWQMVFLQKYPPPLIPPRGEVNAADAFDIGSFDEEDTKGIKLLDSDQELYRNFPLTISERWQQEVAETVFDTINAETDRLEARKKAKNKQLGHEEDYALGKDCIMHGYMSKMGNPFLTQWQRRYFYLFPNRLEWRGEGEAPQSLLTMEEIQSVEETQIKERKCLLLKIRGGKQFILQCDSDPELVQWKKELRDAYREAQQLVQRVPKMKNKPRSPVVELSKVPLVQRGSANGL
In short: as §1

[3] = molecular target: T3, 380 human recombinant protein kinases (Homo sapiens, UniProt Q9NWZ3); details: IRAK4(h), read-out: Inhibition rate
T3 construct: purchased Eurofins (Celle Lévescault)
T3 sequence (Q9NWZ3 1-460): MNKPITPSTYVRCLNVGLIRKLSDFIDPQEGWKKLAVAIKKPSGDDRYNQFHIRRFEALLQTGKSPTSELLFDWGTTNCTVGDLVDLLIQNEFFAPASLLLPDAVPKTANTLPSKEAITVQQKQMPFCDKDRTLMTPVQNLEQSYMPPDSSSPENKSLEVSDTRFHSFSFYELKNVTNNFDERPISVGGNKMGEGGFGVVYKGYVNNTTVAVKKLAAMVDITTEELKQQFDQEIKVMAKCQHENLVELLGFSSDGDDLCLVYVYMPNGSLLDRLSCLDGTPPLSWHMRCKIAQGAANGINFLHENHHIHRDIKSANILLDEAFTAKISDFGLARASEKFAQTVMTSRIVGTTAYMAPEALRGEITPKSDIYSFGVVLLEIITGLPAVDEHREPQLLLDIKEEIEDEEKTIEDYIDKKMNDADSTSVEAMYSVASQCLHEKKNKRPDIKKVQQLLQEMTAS
In short: as §1

[4] = molecular target: T4, 380 human recombinant protein kinases (Homo sapiens, UniProt P24723); details: PKCη(h), read-out: Inhibition rate
T4 construct: purchased Eurofins (Celle Lévescault)
In short: as §1

[5] = molecular target: T5, 380 human recombinant protein kinases (Homo sapiens, UniProt P09769); details: Fgr(h), read-out: Inhibition rate
T5 construct: purchased Eurofins (Celle Lévescault)
In short: as §1

[6] = molecular target: T6, 380 human recombinant protein kinases (Homo sapiens, UniProt P45983); details: JNK1α1(h), read-out: Inhibition rate
T6 construct: purchased Eurofins (Celle Lévescault)
In short: as §1

[7] = molecular target: T7, 380 human recombinant protein kinases (Homo sapiens, UniProt P0C1S8); details: Wee1B(h), read-out: Inhibition rate (%)
T7 construct: purchased Eurofins (Celle Lévescault)
In short: as §1

[8] = molecular target: T8, 380 human recombinant protein kinases (Homo sapiens, UniProt Q13535); details: ATR/ATRIP(h), read-out: Inhibition rate (%)
T8 construct: purchased Eurofins (Celle Lévescault)
In short: as §1

[9] = molecular target: T9, 380 human recombinant protein kinases (Homo sapiens, UniProt Q9NYV4); details: CDK12/cyclinK(h), read-out: Inhibition rate
T9 construct: purchased Eurofins (Celle Lévescault)
In short: as §1

T6 sequence (P45983 whole entry): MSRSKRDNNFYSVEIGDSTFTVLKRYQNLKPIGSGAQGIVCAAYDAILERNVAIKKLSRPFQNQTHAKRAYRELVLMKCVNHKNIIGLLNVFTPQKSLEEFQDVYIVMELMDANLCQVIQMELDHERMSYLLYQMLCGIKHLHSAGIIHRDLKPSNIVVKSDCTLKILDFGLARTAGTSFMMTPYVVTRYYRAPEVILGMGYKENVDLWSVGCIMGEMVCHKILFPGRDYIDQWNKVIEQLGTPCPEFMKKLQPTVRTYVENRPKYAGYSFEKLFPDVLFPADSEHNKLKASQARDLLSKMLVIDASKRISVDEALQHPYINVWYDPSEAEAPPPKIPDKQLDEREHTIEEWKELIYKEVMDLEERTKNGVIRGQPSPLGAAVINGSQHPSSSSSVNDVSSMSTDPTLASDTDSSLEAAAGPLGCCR
T5 sequence (P09769 whole entry): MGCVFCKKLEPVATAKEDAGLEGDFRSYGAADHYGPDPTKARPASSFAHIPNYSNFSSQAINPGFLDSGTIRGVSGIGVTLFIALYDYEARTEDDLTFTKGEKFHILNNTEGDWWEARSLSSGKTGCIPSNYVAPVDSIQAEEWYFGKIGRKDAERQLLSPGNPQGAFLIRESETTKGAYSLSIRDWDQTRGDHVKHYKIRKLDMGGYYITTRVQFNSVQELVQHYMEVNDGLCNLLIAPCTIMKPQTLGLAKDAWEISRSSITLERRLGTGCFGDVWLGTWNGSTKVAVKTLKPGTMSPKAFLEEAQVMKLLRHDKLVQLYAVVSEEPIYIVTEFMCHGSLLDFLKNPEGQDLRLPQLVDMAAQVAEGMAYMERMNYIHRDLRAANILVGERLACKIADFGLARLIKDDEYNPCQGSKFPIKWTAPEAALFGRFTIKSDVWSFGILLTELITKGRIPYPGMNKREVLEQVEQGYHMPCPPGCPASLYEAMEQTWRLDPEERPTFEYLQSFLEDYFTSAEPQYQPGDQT
T9 sequence (Q9NYV4 whole entry): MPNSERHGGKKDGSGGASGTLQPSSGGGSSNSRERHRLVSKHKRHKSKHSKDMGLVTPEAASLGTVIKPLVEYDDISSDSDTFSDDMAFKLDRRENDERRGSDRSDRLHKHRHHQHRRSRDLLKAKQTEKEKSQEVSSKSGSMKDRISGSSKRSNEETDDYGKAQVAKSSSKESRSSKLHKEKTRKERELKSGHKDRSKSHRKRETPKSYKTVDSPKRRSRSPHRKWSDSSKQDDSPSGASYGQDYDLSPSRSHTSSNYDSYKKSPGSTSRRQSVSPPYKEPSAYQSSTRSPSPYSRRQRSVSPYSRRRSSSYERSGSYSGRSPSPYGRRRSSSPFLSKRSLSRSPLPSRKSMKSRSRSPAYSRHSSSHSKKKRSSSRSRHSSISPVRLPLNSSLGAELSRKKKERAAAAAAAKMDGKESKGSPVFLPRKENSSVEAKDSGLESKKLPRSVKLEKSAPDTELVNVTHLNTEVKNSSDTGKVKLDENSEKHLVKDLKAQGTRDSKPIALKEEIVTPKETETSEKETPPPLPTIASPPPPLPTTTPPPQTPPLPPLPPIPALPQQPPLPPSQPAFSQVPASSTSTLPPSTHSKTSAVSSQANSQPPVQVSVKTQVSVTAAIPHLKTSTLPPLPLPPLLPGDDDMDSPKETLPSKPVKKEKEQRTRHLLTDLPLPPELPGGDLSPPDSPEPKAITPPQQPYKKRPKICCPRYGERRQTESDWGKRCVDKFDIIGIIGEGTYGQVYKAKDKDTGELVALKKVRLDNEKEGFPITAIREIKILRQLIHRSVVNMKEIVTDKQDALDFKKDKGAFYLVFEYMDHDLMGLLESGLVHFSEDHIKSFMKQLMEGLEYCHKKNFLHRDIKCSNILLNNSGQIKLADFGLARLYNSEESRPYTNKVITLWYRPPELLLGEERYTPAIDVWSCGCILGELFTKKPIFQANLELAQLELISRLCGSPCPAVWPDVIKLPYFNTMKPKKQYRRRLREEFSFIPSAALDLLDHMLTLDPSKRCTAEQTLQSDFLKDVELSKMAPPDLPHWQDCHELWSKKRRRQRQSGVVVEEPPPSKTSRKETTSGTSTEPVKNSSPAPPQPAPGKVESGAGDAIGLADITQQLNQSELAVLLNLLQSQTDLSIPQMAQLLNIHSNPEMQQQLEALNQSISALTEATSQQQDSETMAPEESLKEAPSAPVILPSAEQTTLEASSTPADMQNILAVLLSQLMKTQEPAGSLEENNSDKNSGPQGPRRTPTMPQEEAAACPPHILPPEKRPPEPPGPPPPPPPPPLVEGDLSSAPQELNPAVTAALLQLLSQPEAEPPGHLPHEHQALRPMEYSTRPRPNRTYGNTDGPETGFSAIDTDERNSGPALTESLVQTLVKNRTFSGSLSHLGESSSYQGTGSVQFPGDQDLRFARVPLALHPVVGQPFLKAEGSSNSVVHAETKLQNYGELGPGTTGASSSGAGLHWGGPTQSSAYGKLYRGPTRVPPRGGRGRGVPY
T8 sequence (Q13535 whole entry): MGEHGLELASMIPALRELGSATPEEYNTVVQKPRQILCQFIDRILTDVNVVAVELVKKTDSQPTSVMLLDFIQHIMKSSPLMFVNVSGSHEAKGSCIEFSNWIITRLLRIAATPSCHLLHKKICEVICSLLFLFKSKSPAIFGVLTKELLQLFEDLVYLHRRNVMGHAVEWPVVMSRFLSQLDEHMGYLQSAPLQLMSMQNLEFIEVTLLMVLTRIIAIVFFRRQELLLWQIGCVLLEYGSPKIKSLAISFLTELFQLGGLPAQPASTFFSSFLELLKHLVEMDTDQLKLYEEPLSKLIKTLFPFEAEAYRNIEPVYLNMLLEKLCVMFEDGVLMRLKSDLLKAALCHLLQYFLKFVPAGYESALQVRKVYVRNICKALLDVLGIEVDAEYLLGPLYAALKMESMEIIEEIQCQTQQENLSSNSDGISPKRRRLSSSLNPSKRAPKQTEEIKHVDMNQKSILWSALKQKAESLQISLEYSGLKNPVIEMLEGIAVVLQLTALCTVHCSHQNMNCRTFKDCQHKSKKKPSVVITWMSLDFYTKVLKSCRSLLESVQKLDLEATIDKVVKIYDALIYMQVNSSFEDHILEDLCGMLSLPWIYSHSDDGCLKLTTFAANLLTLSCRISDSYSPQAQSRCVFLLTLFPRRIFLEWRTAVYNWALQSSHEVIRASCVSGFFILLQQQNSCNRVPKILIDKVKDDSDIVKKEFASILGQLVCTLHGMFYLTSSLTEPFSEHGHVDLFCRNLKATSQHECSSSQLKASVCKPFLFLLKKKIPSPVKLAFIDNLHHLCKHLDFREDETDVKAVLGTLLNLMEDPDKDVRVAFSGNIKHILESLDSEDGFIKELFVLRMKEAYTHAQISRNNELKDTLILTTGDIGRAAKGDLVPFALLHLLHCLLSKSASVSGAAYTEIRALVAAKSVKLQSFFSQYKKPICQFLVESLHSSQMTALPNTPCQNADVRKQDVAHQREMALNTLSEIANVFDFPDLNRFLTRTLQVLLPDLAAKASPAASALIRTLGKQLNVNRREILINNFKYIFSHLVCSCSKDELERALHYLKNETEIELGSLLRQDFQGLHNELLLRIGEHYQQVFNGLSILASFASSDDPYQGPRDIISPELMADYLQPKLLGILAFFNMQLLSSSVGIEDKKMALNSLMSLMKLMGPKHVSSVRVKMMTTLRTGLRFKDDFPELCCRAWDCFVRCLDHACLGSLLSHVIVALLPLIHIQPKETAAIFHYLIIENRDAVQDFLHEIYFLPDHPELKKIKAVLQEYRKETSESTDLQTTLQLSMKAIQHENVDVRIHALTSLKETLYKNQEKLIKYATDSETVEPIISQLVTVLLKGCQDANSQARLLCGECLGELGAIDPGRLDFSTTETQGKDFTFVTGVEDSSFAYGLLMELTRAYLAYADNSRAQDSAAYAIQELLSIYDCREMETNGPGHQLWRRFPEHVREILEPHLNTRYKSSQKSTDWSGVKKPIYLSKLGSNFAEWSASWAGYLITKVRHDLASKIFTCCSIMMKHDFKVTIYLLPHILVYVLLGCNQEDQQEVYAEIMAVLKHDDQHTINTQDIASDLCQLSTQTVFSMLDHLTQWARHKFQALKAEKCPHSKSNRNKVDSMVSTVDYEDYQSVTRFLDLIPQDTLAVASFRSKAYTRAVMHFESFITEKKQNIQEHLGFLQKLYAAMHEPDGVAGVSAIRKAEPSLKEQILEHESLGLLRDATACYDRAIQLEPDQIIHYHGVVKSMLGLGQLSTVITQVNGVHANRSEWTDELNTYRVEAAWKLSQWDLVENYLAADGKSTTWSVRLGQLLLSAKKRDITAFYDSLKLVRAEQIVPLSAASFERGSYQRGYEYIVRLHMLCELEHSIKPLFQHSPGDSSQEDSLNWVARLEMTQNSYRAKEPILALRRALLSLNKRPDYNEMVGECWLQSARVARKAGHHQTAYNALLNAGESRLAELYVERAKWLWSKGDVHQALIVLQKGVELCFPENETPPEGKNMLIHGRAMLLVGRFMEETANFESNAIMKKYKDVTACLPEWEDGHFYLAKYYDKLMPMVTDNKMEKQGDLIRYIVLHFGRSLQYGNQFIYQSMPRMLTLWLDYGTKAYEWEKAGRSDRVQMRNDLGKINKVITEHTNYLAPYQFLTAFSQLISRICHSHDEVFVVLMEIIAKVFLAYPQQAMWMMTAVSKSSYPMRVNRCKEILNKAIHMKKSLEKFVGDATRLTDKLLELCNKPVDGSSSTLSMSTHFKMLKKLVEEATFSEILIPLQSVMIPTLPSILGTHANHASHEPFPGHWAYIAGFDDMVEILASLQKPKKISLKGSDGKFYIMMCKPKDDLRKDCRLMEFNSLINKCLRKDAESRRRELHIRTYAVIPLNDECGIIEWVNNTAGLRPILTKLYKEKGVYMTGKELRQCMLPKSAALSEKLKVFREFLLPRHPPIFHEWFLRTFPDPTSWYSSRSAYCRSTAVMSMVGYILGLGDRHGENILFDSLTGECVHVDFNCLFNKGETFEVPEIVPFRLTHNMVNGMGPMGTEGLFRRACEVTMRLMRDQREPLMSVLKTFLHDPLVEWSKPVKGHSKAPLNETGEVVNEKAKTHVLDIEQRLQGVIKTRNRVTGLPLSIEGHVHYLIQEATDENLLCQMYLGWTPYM

**Q.** What does the source list for C=CC(=O)Nc1cc(-c2cc(-c3cc4c([nH]3)CCNC4=O)ccn2)ccc1OC(F)(F)F [compound 11]?
**A.** inhibition at 0.01 µM ([1]; 10 nM): 6%; inhibition at 0.1 µM ([1]; 100 nM): 16%; inhibition at 1 µM ([1]; 1000 nM): 42%; inhibition at 0.01 µM ([2]; 10 nM): -6%; inhibition at 0.1 µM ([2]; 100 nM): -9%; inhibition at 1 µM ([2]; 1000 nM): -2%; inhibition at 0.01 µM ([3]; 10 nM): -4%; inhibition at 0.1 µM ([3]; 100 nM): -9%; inhibition at 1 µM ([3]; 1000 nM): -2%; inhibition at 0.01 µM ([4]; 10 nM): 1%; inhibition at 0.1 µM ([4]; 100 nM): 10%; inhibition at 1 µM ([4]; 1000 nM): 9%; inhibition at 0.01 µM ([5]; 10 nM): 1%; inhibition at 0.1 µM ([5]; 100 nM): 0%; inhibition at 1 µM ([5]; 1000 nM): 0%; inhibition at 0.01 µM ([6]; 10 nM): 2%; inhibition at 0.1 µM ([6]; 100 nM): 4%; inhibition at 1 µM ([6]; 1000 nM): 21%; inhibition at 0.01 µM ([7]; 10 nM): -2%; inhibition at 0.1 µM ([7]; 100 nM): -4%; inhibition at 1 µM ([7]; 1000 nM): 3%; inhibition at 0.01 µM ([8]; 10 nM): -15%; inhibition at 0.1 µM ([8]; 100 nM): -17%; inhibition at 1 µM ([8]; 1000 nM): -20%; inhibition at 0.01 µM ([9]; 10 nM): -1%; inhibition at 0.1 µM ([9]; 100 nM): 1%; inhibition at 1 µM ([9]; 1000 nM): 5%
